In patent US7070814B2, “Bioavailability / bioefficacy enhancing activity of Cuminum cyminum and extracts and fractions thereof” (Council of Scientific and Industrial Research, priority 2002, dated 2006):

Assay: Bioavailability enhancement: drug, nutraceutical or herbal product given alone or with bioenhancer (BE) to fasted rats, blood (plasma) levels 0-24 hrs by HPLC
Experimental: • 1. Bioenhancers (BEs) from Cuminum cyminum means either the aqueous, or 50% alcoholic extract or fractions No. 1 to 5. • 2. Piperine as Bioenhancer (BE) from Piper species means the molecule with characteristics as described in Example 2 of this invention. • 3.
• (i) Bioenhancer (BE) from Cuminum cyminum • Extract: 16 mg/kg body weight (Rats) • Fraction No. 1: 02–5 mg/kg body weight (rats) • Fraction No.2: 13-mg/kg body weight (Rats) • Fraction No. 3: 8 mg/kg body weight (Rats) • Fraction No. 4: 5 mg/kg body weight (Rats) • Fraction No. 5: 2.5 to 5 mg/kg body weight (Rats) • (ii) Piperine: 8 mg/kg body weight (Rats) As an example of an experiment in Rat (fasted): • Drug: Rifampicin, 40 mg/kg • BE (Cuminum cyminum): Doses as in Example No. 5 above. • BE (Cuminum cyminum)+Piperine: Doses as in Example No. 5 above.
Experimental procedure: Drug alone/or in combination with BE was administered to rats as per the following design: • Group 1: Control • Group 2: Rifampicin alone • Group 3: BE alone • Group 4: Rifampicin+BE (Cuminum cyminum) • Group 5: Rifampicin+BE (C. cyminum+piperine)
Blood from control/treated animals at predetermined intervals (0–24 hrs) (Total 14 timings). Rifampicin was extracted from the blood (plasma) using dichloromethane. The concentration of rifampicin in the samples was determined using HPLC (Model: Shimadzu 1080 BP); PDA detector; Mobile phase: phosphate buffer: acetonitile (40:60); Flow rate 1.0 ml/min. Column RP 18.
Control and BE only groups were employed to study the interference of plasma component and the bioenhancer used.
List of drugs, nutraceuticals, herbal formulations cited below as some of the example for the purpose of present invention.

Structure (SMILES)	% Enhancement in bioavailability, Piperine + Active molecule (rat, in vivo)	other results
O=C(CCCN1CCC(O)(c2ccc(Cl)cc2)CC1)c1ccc(F)cc1 [Haloperidol]	Nil	
N[C@@H]1CON=C1O [Cycloserine]	90%	
CN(Cc1cc(Br)cc(Br)c1N)C1CCCCC1 [Bromhexine]	90%	
CC[C@H]1OC(=O)[C@H](C)[C@@H](O[C@H]2C[C@@](C)(OC)[C@@H](O)[C@H](C)O2)[C@H](C)[C@@H](O[C@@H]2O[C@H](C)C[C@H](N(C)C)[C@H]2O)[C@](C)(O)C[C@@H](C)CN(C)[C@H](C)[C@@H](O)[C@]1(C)O [Azithromycin]	97%	
CCc1cc(C(N)=S)ccn1 [Ethionamide]	65%	
C=CC[C@@H]1/C=C(\C)C[C@H](C)C[C@H](OC)[C@H]2O[C@@](O)(C(=O)C(=O)N3CCCC[C@H]3C(=O)O[C@H](/C(C)=C/[C@@H]3CC[C@@H](O)[C@H](OC)C3)[C@H](C)[C@@H](O)CC1=O)[C@H](C)C[C@@H]2OC [Tacrolimus]	117%	
C=CC1=C(C(=O)O)N2C(=O)[C@@H](NC(=O)/C(=N\OCC(=O)O)c3csc(N)n3)[C@H]2SC1 [Cefixime]		% Enhancement in bioavailability, Piperine + BE from Cuminum cyminum (rat, in vivo): Nil
COc1ccc2[nH]c([S+]([O-])Cc3ncc(C)c(OC)c3C)nc2c1 (stereo not shown) [Omeprazole]		% Enhancement in bioavailability, Piperine + BE from Cuminum cyminum (rat, in vivo): Nil
NCC[C@H](O)C(=O)N[C@@H]1C[C@H](N)[C@@H](O[C@H]2O[C@H](CN)[C@@H](O)[C@H](O)[C@H]2O)[C@H](O)[C@H]1O[C@H]1O[C@H](CO)[C@@H](O)[C@H](N)[C@H]1O [Amikacin]	Nil	
CS(=O)(=O)c1ccc(C2=C(c3ccccc3)C(=O)OC2)cc1 [Rofecoxib]	Negligible	
Cc1nnc2n1-c1ccc(Cl)cc1C(c1ccccc1)=NC2 [Alprazolam]		% Enhancement in bioavailability, BE from Cuminum cyminum (drug + BE from Cuminum cyminum (extract 16 mg/kg or fraction, rats) vs drug alone): 60%; % Enhancement in bioavailability, Piperine as BE (drug + piperine (8 mg/kg, rats) vs drug alone): 98%; % Enhancement in bioavailability, Piperine + Active molecule (drug + piperine + active molecule (rats) vs drug alone): 104%
CC1=C(C(=O)O)N2C(=O)[C@@H](NC(=O)[C@H](N)c3ccc(O)cc3)[C@H]2SC1 [Cefadroxil]		% Enhancement in bioavailability, Piperine + BE from Cuminum cyminum (rat, in vivo): 79%
CC[C@H]1OC(=O)[C@H](C)[C@@H](O[C@H]2C[C@@](C)(OC)[C@@H](O)[C@H](C)O2)[C@H](C)[C@@H](O[C@@H]2O[C@H](C)C[C@H](N(C)C)[C@H]2O)[C@](C)(O)C[C@@H](C)C(=O)[C@H](C)[C@@H](O)[C@]1(C)O [Erythromycin]	95%	
Nc1ccc(S(=O)(=O)c2ccc(N)cc2)cc1 [Dapsone]	75%	
CC[C@@H](CO)NCCN[C@@H](CC)CO [Ethambutol]	Nil	
CN(Cc1cnc2nc(N)nc(N)c2n1)c1ccc(C(=O)N[C@@H](CCC(=O)O)C(=O)O)cc1 [Methotrexate]	30%	
Cc1cn([C@H]2C[C@H](N=[N+]=[N-])[C@@H](CO)O2)c(=O)[nH]c1=O [Zidovudine]	415%	
Cc1onc(-c2ccccc2Cl)c1C(=O)N[C@@H]1C(=O)N2[C@@H]1SC(C)(C)[C@@H]2C(=O)O [Cloxacillin]	95%	
COc1c(C)c2c(c(O)c1C/C=C(\C)CCC(=O)OCCN1CCOCC1)C(=O)OC2 [Mycophenolate Mofeit, Mycophenolate mofetil]	Nil	
CC[C@H]1OC(=O)[C@H](C)[C@@H](O[C@H]2C[C@@](C)(OC)[C@@H](O)[C@H](C)O2)[C@H](C)[C@@H](O[C@@H]2O[C@H](C)C[C@H](N(C)C)[C@H]2O)[C@](C)(O)C[C@@H](C)/C(=N\OCOCCOC)[C@H](C)[C@@H](O)[C@]1(C)O [Roxythromycin]	103%	
NNC(=O)c1ccncc1 [Isoniazid]	Negligible	

Structure (SMILES)	% Enhancement in bioavailability, Piperine + Active molecule (rat, in vivo)	other results
Nc1nc2c(ncn2COCCO)c(=O)[nH]1 [Acyclovir]	98%	
CS(=O)(=O)Nc1ccc([N+](=O)[O-])cc1Oc1ccccc1 [Nimesulide]	150%	
CC1COc2c(N3CCN(C)CC3)c(F)cc3c(=O)c(C(=O)O)cn1c23 (stereo not shown) [O-floxacin, Ofloxacin]	73%	
CN/C(=N/CCSCc1nc[nH]c1C)NC#N [Cimetidine]		% Enhancement in bioavailability, Piperine + BE from Cuminum cyminum (rat, in vivo): 105%
CC(C)(C)NCC(O)c1ccc(O)c(CO)c1 (stereo not shown) [Salbutamol]	85%	
CO/N=C(\C(=O)N[C@@H]1C(=O)N2C(C(=O)O)=C(CSc3nc(=O)c(O)nn3C)CS[C@H]12)c1csc(N)n1 [Cefatrioxone]		% Enhancement in bioavailability, Piperine + BE from Cuminum cyminum (rat, in vivo): Nil
CCn1cc(C(=O)O)c(=O)c2cc(F)c(N3CCNCC3)cc21 [Norfloxacin]	Negligible	
O=c1[nH]cc(F)c(=O)[nH]1 [5-Fluorouracil]	435%	
CNC(=C[N+](=O)[O-])NCCSCc1ccc(CN(C)C)o1 [Ranitidine]		% Enhancement in bioavailability, Piperine + BE from Cuminum cyminum (rat, in vivo): 89%
CC(C)NCC(O)COc1cccc2ccccc12 (stereo not shown) [Propranolol]	210%	
NCCCC[C@H](N[C@@H](CCc1ccccc1)C(=O)O)C(=O)N1CCC[C@H]1C(=O)O [Lisinopril]	98%	
CN1C(C(=O)Nc2ccccn2)=C(O)c2ccccc2S1(=O)=O [Piroxicam]	107%	
CO[C@H]1/C=C/O[C@@]2(C)Oc3c(C)c(O)c4c(O)c(c(/C=N/N5CCN(C)CC5)c(O)c4c3C2=O)NC(=O)/C(C)=C\C=C\[C@H](C)[C@H](O)[C@@H](C)[C@@H](O)[C@@H](C)[C@H](OC(C)=O)[C@@H]1C [Rifampicin]	366%	
COc1cccc2c1C(=O)c1c(O)c3c(c(O)c1C2=O)C[C@@](O)(C(=O)CO)C[C@@H]3O[C@H]1C[C@H](N)[C@H](O)[C@H](C)O1 [Doxorubicin]	103%	
O=C(O)Cc1ccccc1Nc1c(Cl)cccc1Cl [Diclofenac]	108%	
CCOC(=O)C1=C(COCCN)NC(C)=C(C(=O)OC)C1c1ccccc1Cl (stereo not shown) [Amlodipine]	103%	
NC(=O)c1cnccn1 [Pyrazinamide]	Nil	
Cn1c(=O)c2[nH]cnc2n(C)c1=O [Theophylline]	75%	
CC1(C)S[C@@H]2[C@H](NC(=O)[C@H](N)c3ccc(O)cc3)C(=O)N2[C@H]1C(=O)O [Amoxycillin]	98%	
CC(=O)N1CCN(c2ccc(OCC3COC(Cn4ccnc4)(c4ccc(Cl)cc4Cl)O3)cc2)CC1 (stereo not shown) [Ketoconazole]	156%	
